Reference: ChEMBL document CHEMBL3045913, “Synthesis and cytotoxicity of novel chrysin derivatives” (Med Chem Res, 2011)

Assays:
Assay type in all cases: functional, cell-based
K562 = test: Cytotoxicity against Homo sapiens (human) K562 cells by MTT assay
SGC-7901 = test: Cytotoxicity against Homo sapiens (human) SGC7901 cells by MTT assay
DU-145 = test: Cytotoxicity against Homo sapiens (human) DU145 cells by MTT assay
HCT-116 = test: Cytotoxicity against Homo sapiens (human) HCT116 cells by MTT assay
HeLa = test: Cytotoxicity against Homo sapiens (human) HeLa cells by MTT assay

Structure (SMILES) | IC50 (K562) [µM] | IC50 (SGC-7901) [µM] | IC50 (DU-145) [µM] | IC50 (HCT-116) [µM] | IC50 (HeLa) [µM]
CC(C)N(CCOc1cc(O)c2c(=O)cc(-c3ccccc3)oc2c1)C(C)C | 27.8 | 7.98 | 18.1 | 4.6 | 24.2
O=c1cc(-c2ccccc2)oc2cc(OCCNC3CCCCC3)cc(O)c12 | 1.76 | 6.18 | 4.98 | 2.95 | 6.97
O=c1cc(-c2ccccc2)oc2cc(OCCN3CCOCC3)cc(O)c12 | > 100 | 43 | > 100 | > 100 | > 100
O=c1cc(-c2ccccc2)oc2cc(OCCN3CCN(c4ccccc4)CC3)cc(O)c12 | > 100 | > 100 | > 100 | > 100 | > 100
O=c1cc(-c2ccccc2)oc2cc(OCCn3ccnc3)cc(O)c12 | 27.2 | 5.55 | 7.3 | 4.2 | 10.8
Cc1nccn1CCOc1cc(O)c2c(=O)cc(-c3ccccc3)oc2c1 | 10.8 | 7.83 | 8.2 | 3.2 | 9.7
O=c1cc(-c2ccccc2)oc2cc(OCCNCCO)cc(O)c12 | 8.31 | 5.05 | 5.5 | 2.3 | 4.46
O=c1cc(-c2ccccc2)oc2cc(OCCN(CCO)CCO)cc(O)c12 | 105 | 59.2 | > 100 | 22.2 | 86.5
O=c1cc(-c2ccccc2)oc2cc(OCCNc3ccccc3)cc(O)c12 | 31.2 | 69.8 | 68.2 | 35.5 | > 100
CNCCOc1cc(O)c2c(=O)cc(-c3ccccc3)oc2c1 | 7.8 | 4.8 | 2.95 | 2.5 | 3.72
CC(C)NCCOc1cc(O)c2c(=O)cc(-c3ccccc3)oc2c1 | > 100 | > 100 | > 100 | 8.1 | > 100
CCCCNCCOc1cc(O)c2c(=O)cc(-c3ccccc3)oc2c1 | 14.9 | 1.88 | 1.85 | 2.7 | 40.9
CC(C)(C)NCCOc1cc(O)c2c(=O)cc(-c3ccccc3)oc2c1 | > 100 | 3.15 | 2.75 | 1.87 | 4.92
CN(C)CCOc1cc(O)c2c(=O)cc(-c3ccccc3)oc2c1 | 17.9 | 11 | 17.7 | 6.2 | 17.7
O=c1cc(-c2ccccc2)oc2cc(OCCN3CCCCC3)cc(O)c12 | 16.9 | 3.1 | 3.17 | > 100 | 1.7
CCCCN(CCCC)CCOc1cc(O)c2c(=O)cc(-c3ccccc3)oc2c1 | 43.4 | 53.3 | 44.2 | 9.7 | 13.3
O=c1cc(-c2ccccc2)oc2cc(OCCN3CCNCC3)cc(O)c12 | > 100 | > 100 | 32.5 | 32.3 | > 100
CCCNCCOc1cc(O)c2c(=O)cc(-c3ccccc3)oc2c1 | 12.9 | 11.1 | 1.4 | 1.5 | 56.6
CN1CCN(CCOc2cc(O)c3c(=O)cc(-c4ccccc4)oc3c2)CC1 | 23.9 | 55.7 | 28.7 | 18.7 | 47.4
CCCN(CCC)CCOc1cc(O)c2c(=O)cc(-c3ccccc3)oc2c1 | > 100 | 23.6 | 8.4 | 38 | 1.56
CCN(CC)CCOc1cc(O)c2c(=O)cc(-c3ccccc3)oc2c1 | 12.9 | 13.9 | 3.17 | 9.8 | 18.8
O=c1cc(-c2ccccc2)oc2cc(O)cc(O)c12 [CHRYSIN] | > 100 | > 100 | 9.81 | > 100 | 43
O=c1[nH]cc(F)c(=O)[nH]1 [FLUOROURACIL] | – | 2.19 | 2.95 | – | –
